Reference: patent publication US20220009920A1 (GB005, Inc., priority 2020, published 2022)

Assays:
BTK in RAMOS B cells = experiment: Assay to determine BTK activity in RAMOS B cells (anti-IgM, FLIPR Calcium 6); assay type: cell-based; conditions: anti-IgM EC80, calcium readout
Protocol: On the day before assay, Ramos B cells were plated in plating medium (RPMI1640 medium containing 1% FBS and 1× pencillin-streptomycin). On the day of the assay, 2× dye solution was prepared following the manual of the FLIRP Calcium 6 Assay Kit: Dilute the dye with assay buffer (20 mM HEPES in IX HBSS, pH7.4); Add probenecid to the final concentration of 5 mM; vortex vigorously for 1-2 minutes. Cells were collected by centrifuging, and the pellet was re-suspended in plating medium. After counting, cells were re-suspended at a density of 3×10^6/ml in plating medium. Equal volume of 2× dye solution was added to the cell suspension. Cells were then plated at 20 μl/well into a 384-well poly-D-lysine coated plate. Plate was centrifuged at 1000 rpm for 3 minutes and then incubated at 37° C. for 2 hours followed by an additional 15-minute incubation at 25° C. Compounds were prepared at 3× concentration in dilution buffer (20 mM HEPES and 0.1% BSA in 1×HBSS, pH 7.4). Serially diluted compound was transferred from source plate to a 384-well compound plate by using an Echo 550 (Labcyte). 20 μl/well compound dilution buffer was added to the compound plate and mixed on plate shaker for 2 mins. 4× EC80 of Anti-IgM (Jackson ImmunoResearch) was prepared in dilution buffer and 20 μl/well was added to a new 384-well compound plate. After 60 mins of incubation at 25° C. in the dark; cell plate, compound plate containing 4×EC80 of anti-IgM and FLIPR tips were placed into FLIPR (Molecular Devices). 10 ul/well of 4×EC80 anti-IgM was transferred to the cell plate by FLIPR. Plates were read for 160 sec with 1 sec interval.

BTK = biological target: T1, BTK (Homo sapiens, UniProt Q06187); experiment: Assay to determine activity against BTK; assay type: biochemical; conditions: 1 mM ATP, 2 nM BTK, 90 minutes at room temperature
T1 construct: purchased Cama
T1 sequence (Q06187 whole entry): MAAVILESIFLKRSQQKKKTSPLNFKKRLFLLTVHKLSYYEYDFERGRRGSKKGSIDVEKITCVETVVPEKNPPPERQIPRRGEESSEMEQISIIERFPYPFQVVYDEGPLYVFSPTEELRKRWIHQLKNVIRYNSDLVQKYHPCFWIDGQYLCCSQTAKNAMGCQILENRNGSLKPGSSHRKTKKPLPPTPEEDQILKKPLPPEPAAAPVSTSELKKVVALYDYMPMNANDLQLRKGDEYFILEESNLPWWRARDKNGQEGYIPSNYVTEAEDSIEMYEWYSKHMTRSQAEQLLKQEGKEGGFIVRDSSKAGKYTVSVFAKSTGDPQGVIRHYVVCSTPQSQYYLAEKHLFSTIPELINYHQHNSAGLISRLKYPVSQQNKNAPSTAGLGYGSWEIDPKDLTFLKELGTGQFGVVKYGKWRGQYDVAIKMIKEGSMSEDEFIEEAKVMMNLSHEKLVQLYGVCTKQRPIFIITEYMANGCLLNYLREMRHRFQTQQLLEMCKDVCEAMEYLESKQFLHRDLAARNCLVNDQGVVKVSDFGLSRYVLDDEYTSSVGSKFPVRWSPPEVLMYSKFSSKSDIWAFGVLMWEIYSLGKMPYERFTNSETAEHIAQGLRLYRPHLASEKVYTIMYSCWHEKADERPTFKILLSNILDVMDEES
Protocol: Solutions of compounds (test or control) in DMSO were prepared at the desired concentrations, and serially diluted to 11 concentrations by 3-fold dilution in 384pp-plate using TECAN EVO200. 20 nL of stock were transferred to 384 plate using Echo550. DMSO was used as vehicle control.
(BTK was obtained from Cama; FLPeptide2 was obtained from PerkinElmer and Ibrutinib was obtained from Selleck.) 5 μL of ATP solution were added to each well, followed by addition of 15 μL of BTK solution to initiate the reaction. (Note the final volume of each well was 20 μL containing MgCl2 (10 mM), Brij-35 (0.01%), DTT (2 mM), BSA (0.05%), EGTA (1 mM), HEPE (pH7.5) (50 mM), FLPeptide (1.5 uM), ATP (1 mM) and BTK (2 nM).
The plates were incubated at room temperature for 90 minutes and then stopping buffer added (75 μL, containing 0.5 M EDTA) to terminate the reaction. Samples from each well were analyzed using EZ reader. The % remaining activity was calculated using read conversion ratio (CR) according to the equation: […]
XLFit (equation 201) was used to calculate IC50's by floating both bottom and top.

| SMILES | IC50 (BTK in RAMOS B cells; Homo sapiens, Ramos) [µM] | IC50 (BTK) [µM] | IC50 (BTK in RAMOS B cells) [µM] |
| --- | --- | --- | --- |
| CC#CC(=O)N[C@@H]1C=C(c2c(F)cc(C(N)=O)c3[nH]c4c(c23)CCCCC4)CCC1 [Compound 5-9, 1-[(3S)-3-(but-2-ynoylamino)cyclohexen-1-yl]-2-fluoro-5,6,7,8,9,10-hexahydrocyclohepta[b]indole-4-carboxamide] | 0.01 to 0.1 | 0.01 to 0.1 | – |
| C=CC(=O)N1CC[C@@H]2CCN(c3c(F)cc(C(N)=O)c4[nH]c5c(c34)CCCCC5)C[C@@H]21 [Compound 4-2, 1-((3aS,7aR)-1-acryloyloctahydro-6H-pyrrolo[2,3-c]pyridin-6-yl)-2-fluoro-5,6,7,8,9,10-hexahydrocyclohepta[b]indole-4-carboxamide] | ≥ 0.1 | ≥ 0.1 | – |
| C=CC(=O)N1CCC=C(c2ccc(C(N)=O)c3[nH]c4c(c23)CC2(CCCO2)CC4)C1 (stereo not shown) [Compound 7-6, 5-(1-acryloyl-1,2,5,6-tetrahydropyridin-3-yl)-1,2,4,4′,5′,9-hexahydro-3′H-spiro[carbazole-3,2′-furan]-8-carboxamide] | ≥ 0.1 | ≥ 0.1 | – |
| C=CC(=O)N1CCC[C@H](c2cnc(C(N)=O)c3[nH]c4c(c23)CCCC4)C1 [Compound 2-3, (R)-4-(1-acryloylpiperidin-3-yl)-6,7,8,9-tetrahydro-5H-pyrido[3,4-b]indole-1-carboxamide] | ≥ 0.1 | ≥ 0.1 | – |
| C=CC(=O)N1CCc2c(cccc2-c2c(F)cc(C(N)=O)c3[nH]c4c(c23)CC2(CCCO2)CC4)C1 (stereo not shown) [Compound 7-15, 5-(2-acryloyl-1,2,3,4-tetrahydroisoquinolin-5-yl)-6-fluoro-1,2,4,4′,5′,9-hexahydro-3′H-spiro[carbazole-3,2′-furan]-8-carboxamide] | – | 0.01 to 0.1 | ≥ 0.1 |
| C=CC(=O)N1CCc2c(cccc2-c2ncc(C(N)=O)c3[nH]c4c(c23)CCCC4)C1 [Compound 3-1, 1-(2-acryloyl-1,2,3,4-tetrahydroisoquinolin-5-yl)-6,7,8,9-tetrahydro-5H-pyrido[4,3-b]indole-4-carboxamide] | < 0.01 | < 0.01 | – |
| CC#CC(=O)N1CCC=C(c2cnc(C(N)=O)c3[nH]c4c(c23)CCCC4)C1 [Compound 2-8, 4-(1-(but-2-ynoyl)-1,2,5,6-tetrahydropyridin-3-yl)-6,7,8,9-tetrahydro-5H-pyrido[3,4-b]indole-1-carboxamide] | ≥ 0.1 | 0.01 to 0.1 | – |
| C=CC(=O)N1CCC=C(c2ncc(C(N)=O)c3[nH]c4c(c23)CCCC4)C1 [Compound 3-2, 1-(1-acryloyl-1,2,5,6-tetrahydropyridin-3-yl)-6,7,8,9-tetrahydro-5H-pyrido[4,3-b]indole-4-carboxamide] | < 0.01 | < 0.01 | – |
| C=CC(=O)N1CCC=C(c2ccc(C(N)=O)c3[nH]c4c(c23)CC2(CCC2)CC4)C1 [Compound 7-3, 5-(1-acryloyl-1,2,5,6-tetrahydropyridin-3-yl)-1,2,4,9-tetrahydrospiro[carbazole-3,1′-cyclobutane]-8-carboxamide] | ≥ 0.1 | ≥ 0.1 | – |
| C=CC(=O)N1CCc2c(cccc2-c2c(F)cc(C(N)=O)c3[nH]c4c(c23)CC2(CCOC2)CC4)C1 (stereo not shown) [Compound 7-17, 5-(2-acryloyl-1,2,3,4-tetrahydroisoquinolin-5-yl)-6-fluoro-1,2,4,4′,5′,9-hexahydro-2′H-spiro[carbazole-3,3′-furan]-8-carboxamide] | ≥ 0.1 | 0.01 to 0.1 | – |
| CC#CC(=O)N[C@H]1C[C@@H](O)CN(c2c(F)cc(C(N)=O)c3[nH]c4c(c23)CCCCC4)C1 [Compound 4-4, 1-((3S,5R)-3-(but-2-ynamido)-5-hydroxypiperidin-1-yl)-2-fluoro-5,6,7,8,9,10-hexahydrocyclohepta[b]indole-4-carboxamide] | ≥ 0.1 | 0.01 to 0.1 | – |
| C=CC(=O)N1CCC=C(c2ccc(C(N)=O)c3[nH]c4c(c23)CC2(CCCC2)CC4)C1 [Compound 7-5, 5-(1-acryloyl-1,2,5,6-tetrahydropyridin-3-yl)-1,2,4,9-tetrahydrospiro[carbazole-3,1′-cyclopentane]-8-carboxamide] | 0.01 to 0.1 | 0.01 to 0.1 | – |
| C=CC(=O)N1CCc2c(cccc2-c2c(F)cc(C(N)=O)c3[nH]c4c(c23)CC2(CC4)CC2)C1 [Compound 7-12, 5-(2-acryloyl-1,2,3,4-tetrahydroisoquinolin-5-yl)-6-fluoro-1,2,4,9-tetrahydrospiro[carbazole-3,1′-cyclopropane]-8-carboxamide] | – | < 0.01 | 0.01 to 0.1 |
| C=CC(=O)N1CCc2c(cccc2-c2c(C)nc(C(N)=O)c3[nH]c4c(c23)CCCC4)C1 (single isomer, unassigned) [Compound 2-5, 4-(2-acryloyl-1,2,3,4-tetrahydroisoquinolin-5-yl)-3-methyl-6,7,8,9-tetrahydro-5H-pyrido[3,4-b]indole-1-carboxamide] | – | 0.01 to 0.1 | ≥ 0.1 |

The next lines start with the values.

| IC50 (BTK in RAMOS B cells; Homo sapiens, Ramos) [µM] | IC50 (BTK) [µM] | IC50 (BTK in RAMOS B cells) [µM] | SMILES |
| --- | --- | --- | --- |
| ≥ 0.1 | ≥ 0.1 | – | C=CC(=O)N1CCc2c(-c3c(F)cc(C(N)=O)c4[nH]c5c(c34)CC3(CC5)CC3)cccc2[C@@H]1C (atropisomer, axis not shown) [Compound 7-20, 5-((S)-2-acryloyl-1-methyl-1,2,3,4-tetrahydroisoquinolin-5-yl)-6-fluoro-1,2,4,9-tetrahydrospiro[carbazole-3,1′-cyclopropane]-8-carboxamide] |
| < 0.01 | < 0.01 | – | CC#CC(=O)N[C@@H]1C=C(c2c(F)cc(C(N)=O)c3[nH]c4c(c23)CCC4)CCC1 [Compound 10-3, 8-[(3 S)-3-(but-2-ynoylamino)cyclohexen-1-yl]-7-fluoro-1,2,3,4-tetrahydrocyclopenta[b]indole-5-carboxamide] |
| – | ≥ 0.1 | ≥ 0.1 | C=CC(=O)N1CCc2c(cccc2-c2c(F)cc(C(N)=O)c3[nH]c4c(c23)CC2(CC4)CC2)C1 [Compound 7-25, 5-(2-acryloyl-1,2,3,4-tetrahydroisoquinolin-5-yl)-6-fluoro-1,2,4,9-tetrahydrospiro[carbazole-3,1′-cyclopropane]-8-carboxamide] |
| – | < 0.01 | 0.01 to 0.1 | C=CC(=O)N1CCc2c(cccc2-c2c(F)cc(C(N)=O)c3[nH]c4c(c23)CC2(CC4)CC2)C1 [Compound 7-24, 5-(2-acryloyl-1,2,3,4-tetrahydroisoquinolin-5-yl)-6-fluoro-1,2,4,9-tetrahydrospiro[carbazole-3,1′-cyclopropane]-8-carboxamide] |
| 0.01 to 0.1 | 0.01 to 0.1 | – | CC#CC(=O)N[C@H]1C[C@@H](F)CN(c2c(F)cc(C(N)=O)c3[nH]c4c(c23)CCC4)C1 [Compound 10-9, 8-((3S,5R)-3-(but-2-ynamido)-5-fluoro-piperidin-1-yl)-7-fluoro-1,2,3,4-tetrahydrocyclopenta[b]indole-5-carboxamide] |
| – | 0.01 to 0.1 | ≥ 0.1 | C=CC(=O)N1CCc2c(cccc2-c2c(F)cc(C(N)=O)c3[nH]c4c(c23)C[S+]([O-])CC4)C1 (single isomer, unassigned) [Compound 9-2, 9-(2-acryloyl-1,2,3,4-tetrahydroisoquinolin-5-yl)-8-fluoro-1,3,4,5-tetrahydrothiopyrano[4,3-b]indole-6-carboxamide 2-oxide] |
| 0.01 to 0.1 | < 0.01 | – | CC#CC(=O)N(C)[C@H]1CCCN(c2c(F)cc(C(N)=O)c3[nH]c4c(c23)CCC4)C1 [Compound 10-7, 8-[(3S)-3-[but-2-ynoyl(methyl)amino]-1-piperidyl]-7-fluoro-1,2,3,4-tetrahydrocyclopenta[b]indole-5-carboxamide] |
| < 0.01 | < 0.01 | – | CC#CC(=O)N[C@H]1CCC=C(c2c(F)cc(C(N)=O)c3[nH]c4c(c23)CCC4)C1 [Compound 10-4, 8-[(5S)-5-(but-2-ynoylamino)cyclohexen-1-yl]-7-fluoro-1,2,3,4-tetrahydrocyclopenta[b]indole-5-carboxamide] |
| – | 0.01 to 0.1 | ≥ 0.1 | C=CC(=O)N1CCc2c(cccc2-c2c(F)cc(C(N)=O)c3[nH]c4c(c23)CC2(CCOC2)CC4)C1 (stereo not shown) [Compound 7-18, 5-(2-acryloyl-1,2,3,4-tetrahydroisoquinolin-5-yl)-6-fluoro-1,2,4,4′,5′,9-hexahydro-2′H-spiro[carbazole-3,3′-furan]-8-carboxamide] |
